Experimental data: ChEMBL document CHEMBL5252541, “Repurposing antipsychotic drugs into antifungal agents: Synergistic combinations of azoles and bromperidol derivatives in the treatment of various fungal infections” (Eur J Med Chem, 2017)
Calls of active or inactive are those of the source. The calls are words filed in the database; no cut-off is given here.

What was measured:
[1] = test system: BEAS-2B; assay: Cytotoxicity against human BEAS-2B cells assessed as cell survival at 64 microg/ml by XTT assay; type: toxicity, cell-based; details: dose 64 µg/ml
[2] = test system: Candida albicans; assay: Synergistic antifungal activity against Candida albicans ATCC 10231 assessed as compound MIC measured after 48 hrs in presence of ketoconazole by checkboard based microplate reader analysis; type: functional
[3] = test system: HEK293; assay: Cytotoxicity against human HEK293 cells assessed as cell survival at 64 microg/ml by XTT assay; type: toxicity, cell-based; details: dose 64 µg/ml
[4] = test system: Candida albicans; assay: Synergistic antifungal activity against Candida albicans ATCC 64124 assessed as fractional inhibitory concentration index measured for 72 hrs in presence of posaconazole; type: functional
[5] = test system: HEK293; assay: Cytotoxicity against HEK293 cells assessed as cell survival at 8 microg/ml by XTT assay; type: toxicity, cell-based; details: human, dose 8 µg/ml
[6] = test system: Candida albicans; assay: Synergistic antifungal activity against Candida albicans ATCC 64124 assessed as compound MIC measured after 48 hrs in presence of voriconazole by checkboard based microplate reader analysis; type: functional
[7] = Cytotoxicity against human HEK293 cells assessed as cell survival at 1 to 16 microg/ml in presence of posaconazole by XTT assay; type: toxicity, cell-based; details: at 1 to 16 µg/mL, dose 1-16 µg/ml
[8] = test system: Candida albicans; assay: Synergistic antifungal activity against Candida albicans ATCC 10231 assessed as compound MIC measured after 48 hrs in presence of voriconazole by checkboard based microplate reader analysis; type: functional
[9] = test system: J774.A1; assay: Cytotoxicity against mouse J774.A1 cells assessed as cell survival up to 4 microg/ml by XTT assay; type: toxicity, cell-based; details: dose < 4 µg/ml
[10] = test system: Candida albicans; assay: Synergistic antifungal activity against Candida albicans ATCC 64124 assessed as compound MIC measured after 48 hrs in presence of fluconazole by checkboard based microplate reader analysis; type: functional
[11] = test system: Candida albicans; assay: Antifungal activity against Candida albicans ATCC 10231 measured after 48 hrs by broth microdilution analysis; type: functional
[12] = test system: Candida albicans; assay: Synergistic antifungal activity against Candida albicans ATCC 64124 assessed as fractional inhibitory concentration index measured for 72 hrs in presence of voriconazole; type: functional
[13] = test system: Candida albicans; assay: Synergistic antifungal activity against Candida albicans ATCC 10231 assessed as compound MIC measured after 48 hrs in presence of posaconazole by checkboard based microplate reader analysis; type: functional
[14] = test system: Candida albicans; assay: Synergistic antifungal activity against Candida albicans ATCC 90819 assessed as fractional inhibitory concentration index measured for 72 hrs in presence of voriconazole; type: functional
[15] = test system: Candida albicans; assay: Partial synergistic antifungal activity against Candida albicans ATCC MYA-2310 assessed as fractional inhibitory concentration index measured for 72 hrs in presence of voriconazole; type: functional
[16] = test system: Candida albicans; assay: Antifungal activity against Candida albicans ATCC 90819 measured after 48 hrs by broth microdilution analysis; type: functional
[17] = test system: J774.A1; assay: Cytotoxicity against mouse J774.A1 cells assessed as cell survival at 16 microg/ml in presence of voriconazole by XTT assay; type: toxicity, cell-based; details: dose 16 µg/ml
[18] = test system: Nakaseomyces glabratus; assay: Synergistic antifungal activity against Candida glabrata ATCC 2001 assessed as fractional inhibitory concentration index measured for 72 hrs in presence of posaconazole; type: functional
[19] = test system: HEK293; assay: Cytotoxicity against HEK293 cells assessed as cell survival up to 4 microg/ml by XTT assay; type: toxicity, cell-based; details: human, dose < 4 µg/ml
[20] = Cytotoxicity against human BEAS-2B cells assessed as cell survival by XTT assay; type: toxicity, cell-based; details: read-out: Activity
[21] = test system: HEK293; assay: Cytotoxicity against human HEK293 cells assessed as cell survival at 32 microg/ml in presence of voriconazole by XTT assay
[22] = test system: Candida albicans; assay: Partial synergistic antifungal activity against Candida albicans ATCC 10231 assessed as fractional inhibitory concentration index measured for 72 hrs in presence of voriconazole; type: functional
[23] = test system: Candida albicans; assay: Additive antifungal activity against Candida albicans ATCC MYA-1237 assessed as fractional inhibitory concentration index measured for 72 hrs in presence of voriconazole; type: functional
[24] = test system: Candida albicans; assay: Partial synergistic antifungal activity against Candida albicans ATCC 64124 assessed as fractional inhibitory concentration index measured for 72 hrs in presence of itraconazole; type: functional
[25] = test system: Candida albicans; assay: Synergistic antifungal activity against Candida albicans ATCC 90819 assessed as fractional inhibitory concentration index measured for 72 hrs in presence of posaconazole; type: functional
[26] = Cytotoxicity against HEK293 cells assessed as cell survival by XTT assay; type: toxicity, cell-based; details: human, read-out: Activity
[27] = test system: BEAS-2B; assay: Cytotoxicity against human BEAS-2B cells assessed as cell survival up to 4 microg/ml by XTT assay; type: toxicity, cell-based; details: dose < 4 µg/ml
[28] = test system: Candida albicans; assay: Additive antifungal activity against Candida albicans ATCC 10231 assessed as fractional inhibitory concentration index measured for 72 hrs in presence of fluconazole; type: functional
[29] = test system: Candida albicans; assay: Antifungal activity against Candida albicans ATCC MYA-1003 measured after 48 hrs by broth microdilution analysis; type: functional
[30] = Cytotoxicity against mouse J774.A1 cells assessed as cell survival by XTT assay; type: toxicity, cell-based; details: read-out: Activity
[31] = test system: Candida albicans; assay: Antifungal activity against Candida albicans ATCC 64124 measured after 48 hrs by broth microdilution analysis; type: functional
[32] = test system: Candida albicans; assay: Additive antifungal activity against Candida albicans ATCC MYA-2876 assessed as fractional inhibitory concentration index measured for 72 hrs in presence of voriconazole; type: functional
[33] = test system: Candida albicans; assay: Additive antifungal activity against Candida albicans MYA-1003 assessed as fractional inhibitory concentration index measured for 72 hrs in presence of voriconazole
[34] = Cytotoxicity against mouse J774.A1 cells assessed as cell survival at 64 microg/ml by XTT assay; type: toxicity, cell-based; details: at 64 µg/mL, read-out: Activity
[35] = test system: Candida albicans; assay: Partial synergistic antifungal activity against Candida albicans ATCC MYA-2310 assessed as fractional inhibitory concentration index measured for 72 hrs in presence of posaconazole; type: functional
[36] = test system: Candida albicans; assay: Fungicidal activity against Candida albicans ATCC 64124 assessed as reduction in colony forming units at 2 to 8 times MIC incubated after 6 hrs in presence of posaconazole by time kill assay; type: functional, organism-based
[37] = test system: Candida albicans; assay: Synergistic antifungal activity against Candida albicans ATCC 10231 assessed as compound MIC measured after 48 hrs in presence of fluconazole by checkboard based microplate reader analysis; type: functional
[38] = test system: Candida albicans; assay: Synergistic antifungal activity against Candida albicans ATCC 64124 assessed as compound MIC measured after 48 hrs in presence of ketoconazole by checkboard based microplate reader analysis; type: functional
[39] = test system: Candida albicans; assay: Synergistic antifungal activity against Candida albicans ATCC 64124 assessed as compound MIC measured after 48 hrs in presence of posaconazole by checkboard based microplate reader analysis; type: functional
[40] = Cytotoxicity against human BEAS-2B cells assessed as cell survival at 8 microg/ml in presence of posaconazole by XTT assay; type: toxicity, cell-based; details: at 8 µg/mL, read-out: Activity
[41] = test system: J774.A1; assay: Cytotoxicity against mouse J774.A1 cells assessed as cell survival at 8 microg/ml by XTT assay; type: toxicity, cell-based; details: j774.a1, dose 8 µg/ml
[42] = test system: Candida albicans; assay: Potency index, ratio of posaconazole MIC to test compound MIC for antifungal activity against Candida albicans ATCC 10231 measured after 48 hrs by broth microdilution analysis; type: functional

O=C(CCCN1CCC(O)(c2ccc(Br)cc2)CC1)c1ccc(F)cc1 [BROMPERIDOL]
Activity [1]: Non-Toxic | MIC [2]: 32 µg/mL | Activity [3]: Non-Toxic | fractional inhibitory concentration index (FICI) [4]: 0.16 | Activity [5]: Non-Toxic | MIC [6]: 8 µg/mL | viability [7]: 80% | MIC [8]: 32 µg/mL | Activity [9]: Non-Toxic | MIC [10]: 64 µg/mL | MIC [11]: > 128 µg/mL | fractional inhibitory concentration index (FICI) [12]: 0.19 | MIC [13]: 64 µg/mL | fractional inhibitory concentration index (FICI) [14]: 0.5 | fractional inhibitory concentration index (FICI) [15]: 0.53 | MIC [16]: > 128 µg/mL | Activity [17]: Non-Toxic | fractional inhibitory concentration index (FICI) [18]: 0.5 | Activity [19]: Non-Toxic | viability [20]: > 100% | Activity [21]: Non-Toxic | fractional inhibitory concentration index (FICI) [22]: 0.75 | fractional inhibitory concentration index (FICI) [23]: 2 | fractional inhibitory concentration index (FICI) [24]: 0.56 | fractional inhibitory concentration index (FICI) [25]: 0.5 | viability [26]: > 100% | Activity [27]: Non-Toxic | fractional inhibitory concentration index (FICI) [28]: 1.5 | MIC [29]: > 128 µg/mL | viability [30]: > 100% | MIC [31]: > 128 µg/mL | fractional inhibitory concentration index (FICI) [32]: 2 | fractional inhibitory concentration index (FICI) [33]: 0.52 | viability at 64 microg/ml [34]: 30% | fractional inhibitory concentration index (FICI) [35]: 0.52 | Activity [36]: Active | MIC [37]: 64 µg/mL | MIC [38]: 64 µg/mL | MIC [39]: 4 µg/mL | viability at 8 microg/ml [40]: 71% | Activity [41]: Non-Toxic | Ratio [42]: 8
